{"source": "patent US10640536B2", "about": "“Polymyxins, compositions, methods of making and methods of use” (XELLIA PHARMACEUTICALS APS, priority 2013, dated 2020)", "assay_type_in_all_cases": "cell-based", "key": {"[1]": {"tested_on": "Acinetobacter baumannii colistin-sensitive", "experimental": "(§1) The deca sulfomethylated polymyxins were tested for antibacterial activity by determining the minimal inhibitory concentration (MIC) by use of the broth dilution method according to EUCAST. […] indicator organism were used e.g. Acinetobacter baumannii colistin-sensitive, Klebsiella pneumonia #3010, Pseudomonas aeruginosa ATCC27853, Escherichia coli ATCC25922 and Escherichia coli DSA443. The tests were performed at, Statens Serum Institut, Copenhagen, Denmark department for Microbiology and Infection Control.\n(§2) The concentration range used was 0.125-128 μg/mL. Gentamicin was included as a positive quality control. Preparation of Gentamicin: 1000 μg/mL stock solution: 0.125 ml of a 40 mg/mL solution of Hexamicin+4.875 mL sterile water. 128 μg/mL: 0.640 mL of “1000 μg/mL stock solution”+4.36 mL Müeller-Hinton broth (MHB).\n(§3) Preparation of compounds disclosed herein: 5 mg/ml stock solution: one vial of 5 mg was added 1.0 mL sterile water. 512 μg/mL solution: 0.205 mL of “5 mg/mL stock solution”+1.795 mL MHB\n(§4) Preparation of inoculum: Fresh overnight colonies from 5% horse blood agar plates were suspended to a turbidity of 0.5 McFarland and further diluted in Müeller-Hinton broth to 1×10^6 CFU/ml. A total of 50 μL diluted bacterial suspension (Müeller Hinton BBL II-broth, SSI) was added to wells containing 50 μL of two fold compounds described herein or gentamicin dilutions. All compounds were tested in triplicate. The plates were incubated at 35° C., 16-20 h."}, "[2]": {"tested_on": "Escherichia coli ATCC25922", "experimental": "as §1, §2, §3, §4"}, "[3]": {"tested_on": "Klebsiella pneumonia #3010", "experimental": "as §1, §2, §3, §4"}, "[4]": {"tested_on": "Pseudomonas aeruginosa ATCC27853", "experimental": "as §1, §2, §3, §4"}, "[5]": {"tested_on": "Escherichia coli DSA443", "test": "MIC by broth dilution method according to EUCAST", "conditions": "Table 3, 35° C., 16-20 h", "experimental": "as §1, §2, §3\nPreparation of inoculum: Fresh overnight colonies from 5% horse blood agar plates were suspended to a turbidity of 0.5 McFarland and further diluted in Müeller-Hinton broth to 1×10^6 CFU/ml. A total of 50 μL diluted bacterial suspension (Müeller Hinton BBL II-broth, SSI) was added to wells containing 50 μL of two fold compounds described herein or gentamicin dilutions. […]"}, "[6]": {"conditions": "Table 3, broth dilution, 35° C., 16-20 h"}}, "note": "Like-named read-outs stand apart in the source and are kept apart here.", "data": [{"compound": "CC[C@H](C)CCCCC(=O)N[C@@H](CCN(CS(=O)(=O)O)CS(=O)(=O)O)C(=O)N[C@H](C(=O)N[C@@H](CCN(CS(=O)(=O)O)CS(=O)(=O)O)C(=O)N[C@H]1CCNC(=O)[C@H]([C@@H](C)O)NC(=O)[C@H](CCN(CS(=O)(=O)O)CS(=O)(=O)O)NC(=O)[C@H](CCN(CS(=O)(=O)O)CS(=O)(=O)O)NC(=O)[C@H](CC(C)C)NC(=O)[C@@H](CC(C)C)NC(=O)[C@H](CCN(CS(=O)(=O)O)CS(=O)(=O)O)NC1=O)[C@@H](C)O", "note": "[Example 1, Penta (Nγ-Bis-Sulfomethyl) DAB1,3,5,8,9 Polymyxin E1]", "values": [{"measurement": "MIC A. baumannii ColistinS", "setting": "[1]; colistin-sensitive", "value": 4, "unit": "µg/mL"}, {"measurement": "MIC E. coli ATCC 25922", "setting": "[2]; ATCC25922", "value": 8, "unit": "µg/mL"}, {"measurement": "MIC K. pneumonia #3010", "setting": "[3]", "value": 16, "unit": "µg/mL"}, {"measurement": "MIC P. aeruginosa ATCC 27853", "setting": "[4]; ATCC27853", "value": 8, "unit": "µg/mL"}]}, {"compound": "CC(C)CCCCC(=O)N[C@@H](CCN(CS(=O)(=O)O)CS(=O)(=O)O)C(=O)N[C@H](C(=O)N[C@@H](CCN(CS(=O)(=O)O)CS(=O)(=O)O)C(=O)N[C@H]1CCNC(=O)[C@H]([C@@H](C)O)NC(=O)[C@H](CCN(CS(=O)(=O)O)CS(=O)(=O)O)NC(=O)[C@H](CCN(CS(=O)(=O)O)CS(=O)(=O)O)NC(=O)[C@H](CC(C)C)NC(=O)[C@@H](CC(C)C)NC(=O)[C@H](CCN(CS(=O)(=O)O)CS(=O)(=O)O)NC1=O)[C@@H](C)O", "note": "[Example 2, Penta (Nγ-Bis-Sulfomethyl) DAB1,3,5,8,9 Polymyxin E2]", "values": [{"measurement": "MIC A. baumannii ColistinS", "setting": "[1]; colistin-sensitive", "value": 4, "unit": "µg/mL"}, {"measurement": "MIC E. coli ATCC 25922", "setting": "[2]; ATCC25922", "value": 8, "unit": "µg/mL"}, {"measurement": "MIC K. pneumonia #3010", "setting": "[3]", "value": 16, "unit": "µg/mL"}, {"measurement": "MIC P. aeruginosa ATCC 27853", "setting": "[4]; ATCC27853", "value": 8, "unit": "µg/mL"}]}, {"compound": "CC[C@H](C)CCCCC(=O)N[C@@H](CCN(CS(=O)(=O)O)CS(=O)(=O)O)C(=O)N[C@H](C(=O)N[C@@H](CCN(CS(=O)(=O)O)CS(=O)(=O)O)C(=O)N[C@H]1CCNC(=O)[C@H]([C@@H](C)O)NC(=O)[C@H](CCN(CS(=O)(=O)O)CS(=O)(=O)O)NC(=O)[C@H](CCN(CS(=O)(=O)O)CS(=O)(=O)O)NC(=O)[C@H]([C@@H](C)CC)NC(=O)[C@@H](CC(C)C)NC(=O)[C@H](CCN(CS(=O)(=O)O)CS(=O)(=O)O)NC1=O)[C@@H](C)O", "note": "[Example 3, Penta (Nγ-Bis-Sulfomethyl) DAB1,3,5,8,9 Polymyxin E1-i]", "values": [{"measurement": "MIC A. baumannii ColistinS", "setting": "[1]; colistin-sensitive", "value": 4, "unit": "µg/mL"}, {"measurement": "MIC E. coli ATCC 25922", "setting": "[2]; ATCC25922", "value": 8, "unit": "µg/mL"}, {"measurement": "MIC K. pneumonia #3010", "setting": "[3]", "value": 16, "unit": "µg/mL"}, {"measurement": "MIC P. aeruginosa ATCC 27853", "setting": "[4]; ATCC27853", "value": 8, "unit": "µg/mL"}]}, {"compound": "CC[C@H](C)CCCCC(=O)N[C@@H](CCN(CS(=O)(=O)O)CS(=O)(=O)O)C(=O)N[C@H](C(=O)N[C@@H](CCN)C(=O)N[C@H]1CCNC(=O)[C@H]([C@@H](C)O)NC(=O)[C@H](CCN(CS(=O)(=O)O)CS(=O)(=O)O)NC(=O)[C@H](CCN)NC(=O)[C@H](CC(C)C)NC(=O)[C@@H](CC(C)C)NC(=O)[C@H](CCN(CS(=O)(=O)O)CS(=O)(=O)O)NC1=O)[C@@H](C)O", "note": "[PE1-(SM)6^1,5, 9, Tri (Nγ-Bis-Sulfomethyl) DAB1,5,9 Polymyxin E1]", "values": [{"measurement": "MIC E. coli ATCC 25922", "setting": "[2]; ATCC25922", "value": 8, "unit": "µg/mL"}, {"measurement": "MIC P. aeruginosa ATCC 27853", "setting": "[4]; ATCC27853", "value": 8, "unit": "µg/mL"}]}, {"compound": "CC[C@H](C)CCCCC(=O)N[C@@H](CCN(CS(=O)(=O)O)CS(=O)(=O)O)C(=O)N[C@H](C(=O)N[C@@H](CCN)C(=O)N[C@H]1CCNC(=O)[C@H]([C@@H](C)O)NC(=O)[C@H](CCN(CS(=O)(=O)O)CS(=O)(=O)O)NC(=O)[C@H](CCN(CS(=O)(=O)O)CS(=O)(=O)O)NC(=O)[C@H](CC(C)C)NC(=O)[C@@H](CC(C)C)NC(=O)[C@H](CCN(CS(=O)(=O)O)CS(=O)(=O)O)NC1=O)[C@@H](C)O", "note": "[PE1-(SM)8^1,5,8, 9, Tetra (Nγ-Bis-Sulfomethyl) DAB1,5,8,9 Polymyxin E1]", "values": [{"measurement": "MIC E. coli ATCC 25922", "setting": "[2]; ATCC25922", "value": 8, "unit": "µg/mL"}, {"measurement": "MIC P. aeruginosa ATCC 27853", "setting": "[4]; ATCC27853", "value": 8, "unit": "µg/mL"}]}, {"compound": "Gentamicin [reference compound]", "values": [{"measurement": "MIC E. coli DSA 443", "setting": "[5]", "value": ">32", "unit": "µg/mL"}, {"measurement": "MIC A. baumannii ColistinS", "setting": "[1]; [6]", "value": ">32", "unit": "µg/mL"}, {"measurement": "MIC E. coli ATCC 25922", "setting": "[2]; [6]", "value": 1, "unit": "µg/mL"}, {"measurement": "MIC of positive control against quality control limit", "setting": "[2]; limit 0.25-1 μg/mL for E. coli ATCC 25922", "value": "within the limit"}, {"measurement": "MIC K. pneumonia #3010", "setting": "[3]; [6]", "value": 0.125, "unit": "µg/mL"}, {"measurement": "MIC P. aeruginosa ATCC 27853", "setting": "[4]; [6]", "value": 1, "unit": "µg/mL"}, {"measurement": "MIC of positive control against quality control limit", "setting": "[4]; limit 0.5-2 μg/mL for P. aeruginosa ATCC27853", "value": "within the limit"}]}]}
